In patent US20130209431A1, “ISOLATION AND CULTURE OF ERYTHROID PROGENITOR CELLS” (NEW YORK BLOOD CENTER, INC., priority 2012, published 2013):

How the values were obtained:
[1] = tested on: CD34+CD36−IL-3R+ cells (BFU-E cells); experiment: Liquid culture of sorted BFU-E cells, cell numbers counted every day; assay type: cell-based, human
Protocol: (§1) Cells from day 5 cultures were used for sorting since at this time the cultured cells contain about equal numbers of BFU-E and CFU-E forming progenitors. 50×10^6 cells were suspended in 4 mL PBS/0.5% BSA in a 50 mL tube. Cells were blocked with 4% human AB serum for 10 min and subsequently incubated with PE-conjugated mouse anti-human CD34, FITC-conjugated mouse anti-human CD36 and PE-Cy7-conjugated mouse anti-human IL3-R on ice for 30 min in the dark. Cells were washed twice with 40 mL PBS/0.5% BSA and re-suspended in 5 mL PBS/0.5% BSA and stained with the viability marker 7-AAD on ice for 10 min in the dark. Sorting was performed on a MOFLO high-speed cell sorter (Beckman-Coulter). To sort BFU-E and CFU-E cells from primary human bone marrow, we first obtained mononuclear cells by Ficoll density gradient separation. We then obtained CD45^+ cells by positive selection using CD45 magnetic beads. The CD45^+ cells were stained with PE-conjugated mouse anti-human CD34, FITC-conjugated mouse anti-human CD36, PE-Cy7-conjugated mouse anti-human IL3-R, APC-cy7-conjugated mouse anti-human CD45 and APC-conjugated mouse anti-human CD71 for 30 min in the dark. Cells were washed twice with 40 mL PBS/0.5% BSA, re-suspended in 5 mL PBS/0.5% BSA and stained with the viability marker 7-AAD on ice for 10 min in the dark. Sorting was performed on a MOFLO high-speed cell sorter (Beckman-Coulter).
(§2) 0.1×10^6 of sorted BFU-E and the CFU-E cells were cultured in 1 ml of the first phase culture media (as described before) in the absence or presence of dexamethasone (1 μM) or lenalidomide (10 nM). The cell numbers were counted every day.

[2] = tested on: CD34−CD36+IL-3R− cells (CFU-E cells); experiment: Liquid culture of sorted CFU-E cells, cell numbers counted every day; assay type: cell-based, human
Protocol: as §1, with “Cells were washed twice with 40 mL PBS/0.5% BSA, re-suspended in 5 mL PBS/0.5% BSA and stained with the viability marker 7-AAD on ice for 10 min in the dark. Sorting was performed on a MOFLO high-speed cell sorter (Beckman-Coulter).” left out
as §2

[3] = tested on: human CD34+ cells; details: cited from earlier work
[4] = tested on: CFU-E cells; experiment: Flow cytometry of GPA surface expression on cultured CFU-E cells (self-renewal); assay type: cell-based, human; details: cultured for 6 days in the presence of lenalidomide
Protocol: Cells taken from culture every day (day 1 to day 7) were analyzed for cell surface expression of CD34, IL-3R, CD36, CD71, CD45 and GPA using FACS canto flow cytometer (Becton Dickinson). Cultured cells (1×10^5) were suspended in PBS supplemented with 0.5% BSA and incubated with 4% human AB serum for 10 min on ice in the dark. The cells were subsequently incubated with fluorochrome-conjugated antibodies for 30 min at 4° C. and then washed once with PBS-0.5% BSA. The washed cells were then incubated for 10 min on ice in the dark with 7-AAD for identification of dead cells. All the reactions were performed under conditions of antibody saturation. Electronic compensation was done using unstained samples.
as §2
Next, the effect of lenalidomide on CFU-E cells was examined. In this population, the expression of GPA was determined since GPA becomes positive as CFU-E cells differentiate into proerythroblasts. […] These findings imply that lenalidomide promotes self-renewal of the CFU-E cells.

Structure (SMILES)	expansion of CD34+CD36−IL-3R+ cells in the presence versus absence of dexamethasone ([1]; dexamethasone 1 μM) [fold]	expansion of CD34+CD36−IL-3R+ cells ([1]; dexamethasone 1 μM, from 0.1×10^6 cells, untreated 70-fold) [fold]	cell number reached by CD34+CD36−IL-3R+ cells ([1]; dexamethasone 1 μM, start 0.1×10^6, untreated 7×10^6)	duration of continued proliferation of CD34+CD36−IL-3R+ cells ([1]; dexamethasone 1 μM, untreated 6 days) [days]	reduction of BFU-E cell doubling time ([1]; in the presence of dexamethasone) [%]	response of CD34−CD36+IL-3R− cell proliferation to treatment ([2]; dexamethasone 1 μM or lenalidomide 10 nM)	increase of CD34−CD36+IL-3R− cell numbers every day ([2]; lenalidomide 10 nM, doubled every 24 hours in the absence)	effect on the proliferation of CD34+CD36−IL-3R+ cells ([1]; lenalidomide 10 nM)	effect on BFU-E colony formation [3]	effect on CFU-E colony formation [3]	surface expression of GPA on CFU-E cells [4]
C[C@@H]1C[C@H]2[C@@H]3CCC4=CC(=O)C=C[C@]4(C)[C@@]3(F)[C@@H](O)C[C@]2(C)[C@@]1(O)C(=O)CO [dexamethasone]	~20	1300	130×10^6	9	33						
Nc1cccc2c1CN(C1CCC(=O)NC1=O)C2=O (centres unmarked) [lenalidomide]						enhanced the proliferation and expansion	tripled	no effect	not BFU-E colony	promotes CFU-E colony formation	remains negative
